Structures can show the parent of a compound that is named as a salt.
What was measured:
[1] = biological target: PDE10A (H-PDE10A2, Human Phosphodiesterase 10A2) (Homo sapiens (Human), UniProt Q9Y233); experiment: Measurement of PDE10A inhibitory activity-1 (3H-cAMP, recombinant enzyme); format: biochemical; conditions: H-PDE10A2, 64 nM cAMP, 25° C., 2 hours
Experimental: To a solution containing 20 mM Tris-HCl (pH 7.5), 1 mM MgCl2, 100 μM EDTA, 330 μg/ml bovine serum albumin, 50 kU/ml 5′-nucleotidase, 0.1 μCi ^3H-cAMP (64 nM cAMP), and PDE10A (H-PDE10A2, Human Phosphodiesterase 10A2, Scottish Biomedical), a test compound was added, and the mixture was reacted at 25° C. for 2 hours. To the reaction solution, QAE-Sephadex (17-0190-01, GE Healthcare Japan Corp.) suspended in 10 mM HEPES-Na (pH 7.0) (hereinafter, also referred to as a “QAE-Sephadex suspension”) was added, and the mixture was shaken for 1 minute and left standing for 5 minutes to obtain a supernatant. To the supernatant, a QAE-Sephadex suspension was further added, and the mixture was shaken for 1 minute and left standing for 5 minutes. Then, the obtained supernatant was transferred to LumaPlate (PerkinElmer, Inc.) and assayed using a radiation counter (TopCount NXT, PerkinElmer, Inc.).
The value of the sample reacted without the addition of both a test compound and PDE10A was defined as 0%, and the value of the sample reacted in the presence of PDE10A without the addition of a test compound was defined as 100%.

PDE10A = PDE10A (Homo sapiens (Human), UniProt Q9Y233); experiment: Measurement of PDE10A inhibitory activity-2 (PDE10A fraction prepared from MOLT-4 cells); format: biochemical; conditions: PDE10A fraction from MOLT-4 cells (peak around 250 mM NaCl)
Summary of the method: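 Enzyme source was a PDE10A-containing fraction from MOLT-4 cell soluble extract, resolved by HiTrap Q anion exchange with a 0–0.8 M NaCl gradient and selected by cAMP-hydrolysing activity. IC50 determined with this fraction by the same procedure as the preceding PDE10A assay.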

Male C57BL/6 Cr mice = experiment: Test on suppression of phencyclidine-induced hyperlocomotion in mice; format: in vivo, mouse; conditions: Mus musculus, po, 1 h, locomotor activity, test compound 10 mg/kg oral, phencyclidine 5 mg/kg s.c. approx. 1 hour later, measured for 1 hour
Experimental: Male C57BL/6 Cr mice (Japan SLC, Inc.) (8 weeks old) were used in the experiment. A test compound was suspended at 1 mg/mL in a 0.5% hydroxypropylcellulose solution to prepare a suspension for administration. The suspension of the test compound or a solvent (0.5% hydroxypropylcellulose solution) was orally administered at a dose of 10 mL/kg to each mouse. After the administration, the mouse was immediately placed in a locomotor activity measurement apparatus (Muromachi Kikai Co., Ltd., locomotor activity measurement system SUPERMEX). Approximately 1 hour later, phencyclidine (5 mg/10 mL/kg) or a solvent (10 mL/kg saline) was subcutaneously administered to the mouse. The locomotor activity was measured from immediately after the subcutaneous administration to 1 hour later.
Percent inhibition exceeding 100 means that when the activity of the phencyclidine administration control group was defined as 100, the activity of the group given a test compound was lower than that of the solvent administration control group.

PDE10A, sequence (Q9Y233 whole entry): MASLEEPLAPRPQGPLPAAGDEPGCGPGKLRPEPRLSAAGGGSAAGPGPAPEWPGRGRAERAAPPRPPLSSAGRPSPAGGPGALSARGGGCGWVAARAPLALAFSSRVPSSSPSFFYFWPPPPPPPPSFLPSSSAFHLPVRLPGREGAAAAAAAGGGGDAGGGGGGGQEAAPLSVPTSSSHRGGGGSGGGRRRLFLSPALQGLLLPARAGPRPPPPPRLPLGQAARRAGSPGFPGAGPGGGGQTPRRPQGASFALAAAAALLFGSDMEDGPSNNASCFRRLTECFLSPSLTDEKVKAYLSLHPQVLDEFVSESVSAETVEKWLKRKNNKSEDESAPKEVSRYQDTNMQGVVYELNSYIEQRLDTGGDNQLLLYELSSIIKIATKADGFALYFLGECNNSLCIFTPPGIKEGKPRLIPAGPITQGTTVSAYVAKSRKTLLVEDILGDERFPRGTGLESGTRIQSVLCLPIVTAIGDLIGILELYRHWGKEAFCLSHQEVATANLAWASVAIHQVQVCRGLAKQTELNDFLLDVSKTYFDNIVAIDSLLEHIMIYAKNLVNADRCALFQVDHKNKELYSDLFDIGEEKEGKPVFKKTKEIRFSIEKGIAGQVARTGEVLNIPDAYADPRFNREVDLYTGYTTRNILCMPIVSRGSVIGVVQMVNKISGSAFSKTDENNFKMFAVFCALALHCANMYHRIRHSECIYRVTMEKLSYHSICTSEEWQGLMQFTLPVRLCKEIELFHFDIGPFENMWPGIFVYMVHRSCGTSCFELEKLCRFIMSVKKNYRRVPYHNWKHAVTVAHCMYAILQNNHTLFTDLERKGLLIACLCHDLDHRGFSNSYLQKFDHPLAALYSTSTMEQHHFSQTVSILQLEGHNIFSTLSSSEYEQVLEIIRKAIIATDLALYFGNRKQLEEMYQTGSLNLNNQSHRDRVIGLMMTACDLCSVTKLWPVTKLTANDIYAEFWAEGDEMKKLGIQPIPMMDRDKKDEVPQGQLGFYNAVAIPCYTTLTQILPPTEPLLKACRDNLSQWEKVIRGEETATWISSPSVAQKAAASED
PDE10A (H-PDE10A2, Human Phosphodiesterase 10A2), sequence (Q9Y233 267-1055): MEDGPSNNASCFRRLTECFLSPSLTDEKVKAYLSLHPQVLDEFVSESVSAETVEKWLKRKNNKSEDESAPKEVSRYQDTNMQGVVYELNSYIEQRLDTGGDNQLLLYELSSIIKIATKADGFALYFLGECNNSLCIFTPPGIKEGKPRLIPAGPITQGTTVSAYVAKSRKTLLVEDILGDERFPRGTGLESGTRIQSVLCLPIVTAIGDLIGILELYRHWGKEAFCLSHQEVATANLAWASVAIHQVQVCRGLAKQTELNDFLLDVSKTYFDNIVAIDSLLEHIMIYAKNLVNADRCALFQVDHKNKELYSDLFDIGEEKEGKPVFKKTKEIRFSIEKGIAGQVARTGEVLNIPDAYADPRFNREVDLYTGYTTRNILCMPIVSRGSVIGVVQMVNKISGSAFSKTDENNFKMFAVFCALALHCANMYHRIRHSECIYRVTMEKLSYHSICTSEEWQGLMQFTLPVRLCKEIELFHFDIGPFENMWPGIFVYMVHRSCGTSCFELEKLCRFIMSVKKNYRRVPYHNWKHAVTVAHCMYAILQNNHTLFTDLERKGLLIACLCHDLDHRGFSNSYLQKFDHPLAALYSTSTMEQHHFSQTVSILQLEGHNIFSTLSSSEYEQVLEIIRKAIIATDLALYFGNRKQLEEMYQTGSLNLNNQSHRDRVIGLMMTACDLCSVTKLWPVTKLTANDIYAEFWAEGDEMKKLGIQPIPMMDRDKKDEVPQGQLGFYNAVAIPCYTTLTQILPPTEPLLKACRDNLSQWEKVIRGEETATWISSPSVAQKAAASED

Compound	IC50 (PDE10A) [nM]	inhibition in vivo at 10 mg/kg (Male C57BL/6 Cr mice) [%]	further results
CC(=O)c1ccc(C(C)=O)c2c(C)c(C(=O)Nc3cc(C(C)(C)O)c4ccccc4n3)sc12 [Example 6, 4,7-Diacetyl-N-(4-(2-hydroxypropan-2-yl)quinolin-2-yl)-3-methylbenzo[b]thiophene-2-carboxamide methanesulfonate]			IC50 ([1]; methanesulfonate): 5.1 nM
CC(=O)c1ccc(C(C)=O)c2c(C)c(C(=O)Nc3cc(C(C)(C)O)c4ccccc4n3)sc12 [Example 5, 4,7-Diacetyl-N-(4-(2-hydroxypropan-2-yl)quinolin-2-yl)-3-methylbenzo[b]thiophene-2-carboxamide semisulfate]			IC50 [1]: 11 nM
CC(=O)c1ccc(C(C)=O)c2c(C)c(C(=O)Nc3cc(C(C)(C)O)c4ccccc4n3)sc12 [Example 3, 4,7-Diacetyl-N-(4-(2-hydroxypropan-2-yl)quinolin-2-yl)-3-methylbenzo[b]thiophene-2-carboxamide hydrochloride]			IC50 ([1]; hydrochloride): 5.9 nM
COCc1ccc(C(C)=O)c2sc(C(=O)Nc3cc(C(C)(C)O)c4ccccc4n3)c(C)c12 [Example 27, 7-Acetyl-N-(4-(2-hydroxypropan-2-yl)quinolin-2-yl)-4-(methoxymethyl)-3-methylbenzo[b]thiophene-2-carboxamide hydrochloride]			IC50 ([1]; hydrochloride): 1.6 nM
COCc1cccc2nc(NC(=O)c3sc4c(C(C)=O)ccc(COC)c4c3C)ccc12 [Example 67, 7-Acetyl-4-(methoxymethyl)-N-(5-(methoxymethyl)quinolin-2-yl)-3-methylbenzo[b]thiophene-2-carboxamide]			IC50 [1]: 1.8 nM
COCc1ccc(C(C)=O)c2sc(C(=O)Nc3ccc4c(CS(C)(=O)=O)cccc4n3)c(C)c12 [Example 109, 7-Acetyl-4-(methoxymethyl)-3-methyl-N-(5-((methylsulfonyl)methyl)quinolin-2-yl)benzo[b]thiophene-2-carboxamide]			IC50 [1]: 0.61 nM
COCc1ccc(C(=O)C(C)C)c2sc(C(=O)Nc3cc(CN4CC[C@@H](O)C4)c4ccccc4n3)c(C)c12 [Example 59, (R)—N-(4-((3-Hydroxypyrrolidin-1-yl)methyl)quinolin-2-yl)-7-isobutyryl-4-(methoxymethyl)-3-methylbenzo[b]thiophene-2-carboxamide dihydrochloride]	0.31	67	
[2H]C([2H])(OC)c1ccc(C(C)=O)c2sc(C(=O)Nc3cc(C([2H])([2H])N4CC[C@@H](O)C4)c4ccccc4n3)c(C)c12 [Example 116, (R)-7-Acetyl-N-(4-((3-hydroxypyrrolidin-1-yl)(^2H2)methyl)quinolin-2-yl)-4-(methoxy(^2H2)methyl)-3-methylbenzo[b]thiophene-2-carboxamide]	0.15	180	
COCc1ccc(C(C)=O)c2sc(C(=O)Nc3cc(CN4CC[C@@H](F)C4)c4ccccc4n3)c(C)c12 [Example 45, (R)-7-Acetyl-N-(4-((3-fluoropyrrolidin-1-yl)methyl)quinolin-2-yl)-4-(methoxymethyl)-3-methylbenzo[b]thiophene-2-carboxamide]	0.5	97	
COCc1ccc(C(C)=O)c2sc(C(=O)Nc3ccc4c(C(=O)N5CC(OC)C5)cccc4n3)c(C)c12 [Example 105, 7-Acetyl-N-(5-((3-methoxyazetidin-1-yl)carbonyl)quinolin-2-yl)-4-(methoxymethyl)-3-methylbenzo[b]thiophene-2-carboxamide methanesulfonate]			IC50 ([1]; methanesulfonate): 2.1 nM
CC(=O)c1ccc(C(C)=O)c2c(C)c(C(=O)Nc3cc(C(C)(C)O)c4ccccc4n3)sc12 [Example 4, 4,7-Diacetyl-N-(4-(2-hydroxypropan-2-yl)quinolin-2-yl)-3-methylbenzo[b]thiophene-2-carboxamide hydrobromide]			IC50 ([1]; hydrobromide): 5.8 nM
[2H]C([2H])([2H])OCc1cccc2nc(NC(=O)c3sc4c(C(C)=O)ccc(COC)c4c3C)ccc12 [Example 117, 7-Acetyl-4-(methoxymethyl)-N-(5-((^2H3)methoxymethyl)quinolin-2-yl)-3-methylbenzo[b]thiophene-2-carboxamide]	0.61	57	
COCc1ccc(C(C)=O)c2sc(C(=O)Nc3cc(CN4CCC(O)CC4)c4ccccc4n3)c(C)c12 [Example 36, 7-Acetyl-N-(4-((4-hydroxypiperidin-1-yl)methyl)quinolin-2-yl)-4-(methoxymethyl)-3-methylbenzo[b]thiophene-2-carboxamide]	0.35	69	
COCc1ccc(C(C)=O)c2sc(C(=O)Nc3ccc4c(C(=O)N5CC(O)C5)cccc4n3)c(C)c12 [Example 101, 7-Acetyl-N-(5-((3-hydroxyazetidin-1-yl)carbonyl)quinolin-2-yl)-4-(methoxymethyl)-3-methylbenzo[b]thiophene-2-carboxamide]	0.11	35	
COCc1ccc(C(C)=O)c2sc(C(=O)Nc3ccc4c(COCCO)cccc4n3)c(C)c12 [Example 72, 7-Acetyl-N-(5-((2-hydroxyethoxy)methyl)quinolin-2-yl)-4-(methoxymethyl)-3-methylbenzo[b]thiophene-2-carboxamide hydrochloride]	0.54	83	
COCc1ccc(C(C)=O)c2sc(C(=O)Nc3ccc4c(COP(=O)(O)O)cccc4n3)c(C)c12 [Example 87, (2-(7-Acetyl-4-(methoxymethyl)-3-methylbenzo[b]thiophene-2-carboxamido)quinolin-5-yl)methyl dihydrogen phosphate hydrochloride]	0.6	92	
COCc1ccc(C(C)=O)c2sc(C(=O)Nc3ccc4c(C(C)O)cccc4n3)c(C)c12 (centres unmarked) [Example 76, 7-Acetyl-N-(5-(1-hydroxyethyl)quinolin-2-yl)-4-(methoxymethyl)-3-methylbenzo[b]thiophene-2-carboxamide]	0.53	102	
[2H]C([2H])([2H])OCc1ccc(C(C)=O)c2sc(C(=O)Nc3ccc4c(COC)cccc4n3)c(C)c12 [Example 118, 7-Acetyl-4-((^2H3)methoxymethyl)-N-(5-(methoxymethyl)quinolin-2-yl)-3-methylbenzo[b]thiophene-2-carboxamide]	0.76	77	

Continued, in another order:

IC50 (PDE10A) [nM]	Compound	inhibition in vivo at 10 mg/kg (Male C57BL/6 Cr mice) [%]	further results
0.054	COCc1ccc(C(C)=O)c2sc(C(=O)Nc3cc(N)c4ccccc4n3)c(C)c12 [Example 54, 7-Acetyl-N-(4-aminoquinolin-2-yl)-4-(methoxymethyl)-3-methylbenzo[b]thiophene-2-carboxamide]	68	
0.75	COCCOCc1cccc2nc(NC(=O)c3sc4c(C(C)=O)ccc(COC)c4c3C)ccc12 [Example 71, 7-Acetyl-N-(5-((2-methoxyethoxy)methyl)quinolin-2-yl)-4-(methoxymethyl)-3-methylbenzo[b]thiophene-2-carboxamide hydrochloride]	89	
1.1	COCc1ccc(C(C)=O)c2sc(C(=O)Nc3ccc4c(CN5CC[C@H](O)C5)cccc4n3)c(C)c12 [Example 63, (S)-7-Acetyl-N-(5-((3-hydroxypyrrolidin-1-yl)methyl)quinolin-2-yl)-4-(methoxymethyl)-3-methylbenzo[b]thiophene-2-carboxamide dihydrochloride]	84	
7.1	COCc1ccc(C(C)=O)c2sc(C(=O)Nc3ccc4c(COC(=O)[C@@H](N)C(C)C)cccc4n3)c(C)c12 [Example 84, (S)-(2-(7-Acetyl-4-(methoxymethyl)-3-methylbenzo[b]thiophene-2-carboxamido)quinolin-5-yl)methyl-2-amino-3-methylbutanoate]	92	
0.92	CCc1c(C(=O)Nc2cc(CN3CC[C@@H](O)C3)c3ccccc3n2)sc2c(C(C)=O)ccc(COC)c12 [Example 42, (R)-7-Acetyl-3-ethyl-N-(4-((3-hydroxypyrrolidin-1-yl)methyl)quinolin-2-yl)-4-(methoxymethyl)benzo[b]thiophene-2-carboxamide]	85	

From patent US9464076B2, “Benzothiophene derivative” (Daiichi Sankyo Company, Limited, priority 2013, dated 2016)
